Paper PMC6681393, “Intra-Nasally Administered Oligopeptide Lunasin Acts as a Possible Anti-Psychotic Agent in Mice Models” (Medicina, 2019)
Entries after “also recorded” stand apart in the source; their conditions may differ.

Assays:
[1] = test system: brain monoamine levels; experiment: Brain monoamines and metabolites, lunasin per se (UHPLC-TOF-MS); type: in vivo, male albino ICR mice; conditions: lunasin i.n. alone; for brain dopamine level, lunasin per se (words): p < 0.01
[2] = test system: locomotor activity of ICR mice; experiment: Open field locomotor activity, lunasin per se; type: in vivo, male albino ICR mice; conditions: lunasin 0.1 or 1 nmol/mouse i.n. alone; 15-min test; n = 7–8
[3] = test system: DOI-induced hyperlocomotion in ICR mice; experiment: Open field locomotor activity, DOI-induced hyperlocomotion; type: in vivo, male albino ICR mice; conditions: for effect on DOI hyperactivity (words): lunasin 1 nmol/mouse i.n., p = 0.0137; for Locomotion (distance, cm): key: ↑: increase; ↓: decrease; N: normalization; Nc: no changes
[4] = test system: 5-HT2A receptor; experiment: [125I]DOI binding displacement, 5-HT2A; set-up: species or system human; conditions: for inhibition of [125I]DOI specific binding: mean of duplicates (n = 2)
Protocol: (§1) The binding assay was performed by Eurofins Cerep (France) according to Bryant et al., 1996 [15]. Briefly, the binding of lunasin to 5-HT2A and 5-HT2C receptors was estimated on its ability to displace the specific binding of [^125I]DOI on cell membrane suspensions of HEK-293 cells expressing human recombinant 5-HT2A and 5-HT2C receptors. The radioligand [^125I]DOI has high affinity for 5-HT2A (Kd: 0.3 nM) and 5-HT2C (Kd: 0.9 nM) receptors. Lunasin was tested at concentrations of 1, 10 and 100 µM. The results were expressed as a percent of radioligand specific binding (n = 2).

[5] = test system: brain monoamine levels, amphetamine-treated mice; experiment: Brain monoamines and metabolites, amphetamine-treated mice (UHPLC-TOF-MS); type: in vivo, male albino ICR mice; conditions: for amphetamine-altered brain noradrenaline level (words): lunasin 0.1 nmol/mouse i.n. For 5-HIAA (brain level, ng/g): key: ↑: increase; ↓: decrease; N: normalization; Nc: no changes. For DA (brain dopamine level, ng/g): key: ↑: increase; ↓: decrease; N: normalization; Nc: no changes. For NA (brain noradrenaline level, ng/g): key: ↑: increase; ↓: decrease; N: normalization; Nc: no changes.
[6] = test system: 5-HT2C receptor; experiment: [125I]DOI binding displacement, 5-HT2C; set-up: species or system human; conditions: for inhibition of [125I]DOI specific binding: mean of duplicates (n = 2)
Protocol: as §1

[7] = test system: brain monoamine levels, DOI-treated mice; experiment: Brain monoamines and metabolites, DOI-treated mice (UHPLC-TOF-MS); type: in vivo, male albino ICR mice
[8] = test system: PCP-induced hyperlocomotion in ICR mice; experiment: Open field locomotor activity, phencyclidine-induced hyperlocomotion; type: in vivo, male albino ICR mice; conditions: lunasin 0.1 or 1 nmol/mouse i.n. after PCP 5 mg/kg i.p., n = 7–8
[9] = test system: amphetamine-induced hyperlocomotion in ICR mice; experiment: Open field locomotor activity, amphetamine-induced hyperlocomotion; type: in vivo, male albino ICR mice; conditions: for Locomotion (distance, cm): 15-min open field; for Locomotion (distance, cm) / effect on amphetamine hyperlocomotion: n = 7–8
[10] = test system: locomotion altered by ketamine; conditions: central (intracisternal) injection; cited from earlier work
[11] = test system: amphetamine-induced hyper-locomotion; conditions: direct central administration (intracisternally); cited from earlier work
From the text: (§2) Thus, lunasin at both doses normalized to control the level of behavioural changes after amphetamine in ...

[12] = test system: dopamine D2 receptor subtype; conditions: cited from earlier work
From the text: as §2

[13] = test system: dopamine D1 receptor subtype; conditions: cited from earlier work
From the text: as §2

[14] = test system: apomorphine-induced climbing activity; conditions: direct central administration (intracisternally); cited from earlier work
[15] = lunasin i.n., DOI-treated mice, dose not stated
[16] = 1 and 10 µM, HEK-293 cell membranes
[17] = lunasin 0.1 nmol/mouse i.n. + amphetamine 3 mg/kg i.p., n = 6–8
[18] = lunasin 1 nmol/mouse i.n. + amphetamine 3 mg/kg i.p., n = 6–8
[19] = lunasin 1 nmol/mouse i.n., p < 0.01
[20] = lunasin 0.1 and 1 nmol/mouse i.n., p < 0.0001
[21] = lunasin i.n., amphetamine-treated mice, dose not stated
[22] = lunasin 0.1 nmol/mouse i.n. + DOI 3 mg/kg i.p., n = 6–8
[23] = lunasin 1 nmol/mouse i.n. + DOI 3 mg/kg i.p., n = 6–8

For lunasin, which “brain DOPAC concentration, lunasin per se” value [1] is on record?
Its value is “Neither lunasin per se nor amphetamine changed the DOPAC concentration”.

And the “brain dopamine level, lunasin per se (words)” value [1]?
The value was “significantly decreased dopamine level”.

And the “brain dopamine level, lunasin per se (words)” value ([1]; listed as lunasin)?
The value was “significantly decreased dopamine levels”.

And the “effect of lunasin per se on locomotion” value [2]?
The value was “did not influence mouse activity”.

And the “Locomotion (distance, cm)” value ([3]; lunasin 1 nmol/mouse i.n. 15 min after DOI 3 mg/kg i.p., 15-min open field, n = 7–8)?
The value was “N”.

What about the “effect on DOI hyperactivity (words)” value ([3]; n = 7–8) of the same substance?
The value was “exerted protection against DOI-induced hyper-locomotion”.

What about the “effect on DOI hyperactivity (words)” value ([3]; n = 7–8, listed as lunasin) of the same substance?
Its value is “decreased hyperactivity”.

What about the “hyper-locomotion, summary” value [3, 15] of the same substance?
The value was “fully normalized hyper-locomotion”.

And the “inhibition of [125I]DOI specific binding” value ([4]; 1 µM, HEK-293 cell membranes)?
Its value is 1.6%.

What about the “inhibition of [125I]DOI specific binding” value ([4]; 10 µM, HEK-293 cell membranes) of the same substance?
The value was 2.6%.

What about the “binding activity” value ([4]; 100 µM) of the same substance?
The value was “weak binding activity”.

What about the “inhibition of [125I]DOI specific binding” value ([4]; 100 µM, HEK-293 cell membranes) of the same substance?
The value was 32.5%.

And the “binding activity” value [4, 16]?
Its value is “did not show binding activity”.

And the “receptor affinity” value ([4]; compared with DOI, abstract)?
The value was “low affinity of lunasin (at µM concentrations)”.

And the “5-HIAA (brain level, ng/g)” value [5, 17]?
The value was “N”.

And the “DA (brain dopamine level, ng/g)” value [5, 17]?
Its value is “N”.

And the “NA (brain noradrenaline level, ng/g)” value [5, 17]?
The value was “N”.

And the “amphetamine-altered brain noradrenaline level (words)” value ([5]; p < 0.01)?
Its value is “reversed amphetamine-induced and DOI-induced (both tested doses) noradrenaline alterations to the control values”.

What about the “amphetamine-altered brain noradrenaline level (words)” value ([5]; p < 0.01, listed as lunasin) of the same substance?
Its value is “normalized noradrenaline level to control values”.

What about the “5-HIAA (brain level, ng/g)” value [5, 18] of the same substance?
The value was “N”.

And the “5-HT (brain level, ng/g)” value [5, 18]?
The value was “N”.

What about the “DA (brain dopamine level, ng/g)” value [5, 18] of the same substance?
The value was “N”.

What about the “HVA (brain level, ng/g)” value [5, 18] of the same substance?
Its value is “N”.

What about the “amphetamine-altered brain HVA level” value ([5]; lunasin 1 nmol/mouse i.n., p < 0.001) of the same substance?
Its value is “normalized the altered levels of HVA; also recorded: reversed to control value the elevated levels of dopamine and its metabolite HVA”.

And the “amphetamine-increased brain serotonin level” value [5, 19]?
The value was “decreased the augmented serotonin; also recorded: fully normalized the levels of serotonin”.

And the “amphetamine-increased brain 5-HIAA level” value ([5]; lunasin 0.1 and 1 nmol/mouse i.n. (both doses), p < 0.0001)?
Its value is “decreased the augmented serotonin (p < 0.01, Figure 2d) at both doses, as well as 5-HIAA levels; also recorded: fully normalized the levels of serotonin and its metabolite 5-HIAA (both tested doses)”.

And the “amphetamine-increased brain dopamine level” value [5, 20]?
Its value is “reversed to control values; also recorded: reversed to control value the elevated levels of dopamine”.

What about the “brain monoamine levels, summary” value [5, 21] of the same substance?
Its value is “fully normalized hyper-locomotion and brain monoamine levels”.

And the “inhibition of [125I]DOI specific binding” value ([6]; 1 µM, HEK-293 cell membranes)?
The value was 4.7%.

What about the “inhibition of [125I]DOI specific binding” value ([6]; 10 µM, HEK-293 cell membranes) of the same substance?
Its value is 10.3%.

What about the “inhibition of [125I]DOI specific binding” value ([6]; 100 µM, HEK-293 cell membranes) of the same substance?
The value was 59.7%.

And the “binding activity” value ([6]; 100 µM, compared with 5-HT2A)?
The value was “more considerable”.

What about the “binding activity” value [6, 16] of the same substance?
The value was “did not show binding activity”.

And the “receptor affinity” value ([6]; compared with DOI, abstract)?
The value was “low affinity of lunasin (at µM concentrations)”.

And the “5-HIAA (brain level, ng/g)” value [7, 22]?
The value was “N”.

What about the “5-HT (brain level, ng/g)” value [7, 22] of the same substance?
Its value is “N”.

And the “NA (brain noradrenaline level, ng/g)” value [7, 22]?
Its value is “N”.

What about the “5-HIAA (brain level, ng/g)” value [7, 23] of the same substance?
Its value is “N”.

And the “5-HT (brain level, ng/g)” value [7, 23]?
The value was “N”.

What about the “HVA (brain level, ng/g)” value [7, 23] of the same substance?
The value was “N”.

And the “NA (brain noradrenaline level, ng/g)” value [7, 23]?
The value was “N”.

And the “DOI-altered brain HVA level” value [7, 19]?
Its value is “normalized the altered levels of HVA”.

And the “DOI-altered brain noradrenaline level” value ([7]; lunasin 0.1 and 1 nmol/mouse i.n. (both tested doses), p < 0.01)?
Its value is “reversed amphetamine-induced and DOI-induced (both tested doses) noradrenaline alterations to the control values”.

And the “DOI-increased brain 5-HIAA level” value [7, 20]?
The value was “reversed the DOI up-regulated levels of serotonin and 5-HIAA almost to the control values; also recorded: fully normalized them to the control values”.

And the “DOI-increased brain serotonin level” value [7, 20]?
The value was “reversed the DOI up-regulated levels of serotonin and 5-HIAA almost to the control values; also recorded: fully normalized them to the control values”.

And the “brain monoamine levels, summary” value [7, 15]?
The value was “fully normalized hyper-locomotion and brain monoamine levels”.

What about the “DOI-increased brain DOPAC level” value ([7]; lunasin i.n., dose not stated) of the same substance?
The value was “These altered parameters were normalized by lunasin”.

And the “DOI-lowered brain HVA level” value ([7]; lunasin i.n., dose not stated)?
Its value is “These altered parameters were normalized by lunasin”.

What about the “DOI-lowered brain noradrenaline level” value ([7]; lunasin i.n., dose not stated) of the same substance?
Its value is “These altered parameters were normalized by lunasin”.

What about the “effect on PCP hyperlocomotion (words)” value [8] of the same substance?
Its value is “Phencyclidine behavioural effects were not influenced”.

And the “effect on PCP hyperlocomotion (words)” value ([8]; listed as lunasin)?
The value was “did not influence the PCP effect; also recorded: we did not find any influence of lunasin on PCP-induced hyperactivity”.

What about the “Locomotion (distance, cm)” value ([9]; lunasin 0.1 nmol/mouse i.n. 15 min after amphetamine 3 mg/kg i.p.) of the same substance?
Its value is “N”.

What about the “effect on amphetamine hyperlocomotion” value ([9]; lunasin 0.1 nmol/mouse i.n., p = 0.0031) of the same substance?
The value was “considerably decreased; also recorded: normalized to control the level of behavioural changes after amphetamine injection”.

What about the “Locomotion (distance, cm)” value ([9]; lunasin 1 nmol/mouse i.n. 15 min after amphetamine 3 mg/kg i.p.) of the same substance?
The value was “N”.

What about the “effect on amphetamine hyperlocomotion” value ([9]; lunasin 1 nmol/mouse i.n., p = 0.0018) of the same substance?
The value was “considerably decreased; also recorded: normalized to control the level of behavioural changes after amphetamine injection”.

And the “hyper-locomotion, summary” value [9, 21]?
Its value is “fully normalized hyper-locomotion”.

And the “effect on locomotion altered by ketamine” value [10]?
Its value is “did not influence locomotion altered by ketamine”.

And the “amphetamine-induced hyper-locomotion” value [11]?
Its value is “reduced amphetamine-induced hyper-locomotion”.

And the “dopamine D2 receptor binding” value [12]?
Its value is “does not bind to the dopamine D2 receptor subtype”.

And the “dopamine D1 receptor affinity” value [13]?
The value was “has an affinity similar to that of dopamine”.

And the “apomorphine-induced climbing activity” value [14]?
The value was “reduced amphetamine-induced hyper-locomotion and apomorphine-induced climbing activity”.
